Reference: paper PMC5253357, “Racemic Salsolinol and its Enantiomers Act as Agonists of the μ-Opioid Receptor by Activating the Gi Protein-Adenylate Cyclase Pathway” (Frontiers in Behavioral Neuroscience, 2017)
“Also recorded” adds a separate entry of the source.

Tests used:
human μ-opioid receptor [1] = biological target: T1, human μ-opioid receptor (Homo sapiens, UniProt P35372); test: cell-based; conditions: CHO-K1 cells, forskolin 20 μM, 30 min incubation; read-out: EC50, activation of μ-opioid receptor (reduction of intracellular cAMP)
T1 construct: host or cells: CHO-K1
T1 sequence (P35372 whole entry): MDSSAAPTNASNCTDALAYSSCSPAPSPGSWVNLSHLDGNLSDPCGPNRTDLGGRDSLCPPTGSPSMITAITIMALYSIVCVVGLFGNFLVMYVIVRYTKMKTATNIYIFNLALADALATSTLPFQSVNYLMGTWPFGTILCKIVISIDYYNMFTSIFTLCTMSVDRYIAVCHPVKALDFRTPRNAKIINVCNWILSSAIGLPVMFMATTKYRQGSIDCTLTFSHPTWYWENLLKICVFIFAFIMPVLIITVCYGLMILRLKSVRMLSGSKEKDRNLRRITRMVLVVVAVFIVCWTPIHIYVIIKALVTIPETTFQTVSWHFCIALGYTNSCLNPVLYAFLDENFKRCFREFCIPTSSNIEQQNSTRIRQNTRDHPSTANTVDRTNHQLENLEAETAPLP
Text: The intrinsic activity of the ligands was studied using commercially cell-based assays, composed by recombinant CHO-K1 cells that overexpress only the human μ-opioid receptor, detecting the levels of second messengers that reflect the activation of this receptor. To assess the activation of the μ-opioid receptor through the recruitment of G protein signaling pathway, we used the cyclic adenosine monophosphate (cAMP) Hunter® eXpress G protein-coupled receptor (GPCR) Assay (DiscoverX, Freemont, CA, USA) following the manufacturer instructions. In this system, the endogenous cAMP competes with an exogenous cAMP coupled to a truncated β-galactosidase fragment (provided by the assay) for binding to a cAMP antibody. Only the unbound exogenous cAMP-β-galactosidase fragment binds to a complementary β-galactosidase fragment to form the active enzyme. […] Control cells were incubated only with forskolin. The resulting luminescence was measured with a microplate reader Synergy HT (Biotek, Winooski, VT, USA) or a microplate reader SpectraMax M3 (Molecular Devices, Sunnyvale, CA, USA).
(§1) The fitting of the data to the correlation was assessed by its corresponding coefficient of determination (R^2), using GraphPad Prism (San Diego, CA, USA).

μ-opioid receptor = biological target: μ-opioid receptor; parameters: method as in Lucchi et al., 1982; conditions: rat striatum; ref Lucchi et al., 1982; read-out: IC50, displacement of [met]-enkephalin; cited from earlier work
human μ-opioid receptor [2] = biological target: T1, human μ-opioid receptor; assay type: cell-based; conditions: all tested concentrations; listed as racemic SAL
Text: To assess the activation of the μ-opioid receptor through the recruitment of the β-arrestin signaling pathway, we used a PathHunter® eXpress β-Arrestin GPCR chemiluminescent assay (DiscoverX) following the manufacturer instructions. In this system, the human μ-opioid receptor is fused to a small fragment of β-galactosidase (PK) and co-expressed in cells expressing a fusion protein of β-arrestin and the complementary fragment of β-galactosidase (EA). Activation of the μ-opioid receptor stimulates binding of β-arrestin to the PK-tagged receptor allowing the complementation of the two enzyme fragments of β-galactosidase. This action leads to an activation of the enzyme that can be measured using a chemiluminescent reagent resulting in luminescence, which is proportional to the recruitment of β-arrestin. […] The resulting luminescence was determined with a microplate reader Synergy HT (Biotek).
as §1

Structure (SMILES)	EC50 (human μ-opioid receptor [1])	IC50 (μ-opioid receptor)	Activation of β-arrestin signaling pathway (in words) (human μ-opioid receptor [2])
C[C@H]1NCCc2cc(O)c(O)cc21 [(R)-SAL]	600 µM		
C[C@@H]1NCCc2cc(O)c(O)cc21 [(S)-SAL]	9 µM		
CC1NCCc2cc(O)c(O)cc21 (racemic) [(R/S)-SAL, 1-methyl-1,2,3,4-tetrahydro-6,7-dihydroxy-isoquinoline]	20 µM	10 µM	did not promote the recruitment of β-arrestin; also recorded: unable to activate the β-arrestin signaling pathway; also recorded: does not induce the recruitment of β-arrestin
